Test results taken from ChEMBL document CHEMBL1201862, “PubChem BioAssay data set” (2004).
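Results reflect a 48-hour exposure of cells in 96-well plates to compound at five concentrations. GI50: concentration for 50% inhibition of growth.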 Activity calls are given as the source filed them. Cut-off read from the data, not from the text of the source: active = GI50 up to about 1.1 µM and inactive = higher.

Experiments:
Test in all cases: growth of human tumour cells (NCI), 48 h
[1] = tested on: ACHN
[2] = tested on: K562
[3] = tested on: HCT-15
[4] = tested on: SF-295
[5] = tested on: Hs-578T
[6] = tested on: OVCAR-3
[7] = tested on: CAKI-1
[8] = tested on: OVCAR-4
[9] = tested on: NCI-H522
[10] = tested on: IGROV-1
[11] = tested on: SK-MEL-5
[12] = tested on: SK-MEL-28
[13] = tested on: LOX IMVI
[14] = tested on: NCI/ADR-RES
[15] = tested on: PC-3
[16] = tested on: UACC-62
[17] = tested on: SNB-75
[18] = tested on: COLO 205
[19] = tested on: SN12C
[20] = tested on: A549

Row | SMILES | GI50 [1] | GI50 [2] | GI50 [3] [µM] | GI50 [4] | GI50 [5] | GI50 [6] | GI50 [7] | GI50 [8] | GI50 [9] | GI50 [10] | GI50 [11] | GI50 [12] | GI50 [13] | GI50 [14] | GI50 [15] | GI50 [16] | GI50 [17] | GI50 [18] | GI50 [19] | GI50 [20]
1 | Cc1cc(S(=O)(=O)[N-]/C(=N/S(=O)(=O)c2cc(Cl)sc2Cl)[n+]2ccc(N(C)C)cc2)c(S)cc1Cl | 67 µM (inactive) | 43.9 µM (inactive) | 42.7 | 47.9 µM (inactive) | 40.4 µM (inactive) | 96.6 µM (inactive) | 60.3 µM (inactive) | 37.2 µM (inactive) | 25.4 µM (inactive) | > 100 µM (inactive) | 77.8 µM (inactive) | 84.9 µM (inactive) | > 100 µM (inactive) | > 100 µM (inactive) | 53.8 µM (inactive) |  |  |  |  | 
2 | Cc1[nH]c2ncn3ncnc3c2c1Cc1ccccc1 | > 100 µM (inactive) |  | > 100 | > 100 µM (inactive) | > 100 µM (inactive) | > 100 µM (inactive) | > 100 µM (inactive) | > 100 µM (inactive) | > 100 µM (inactive) | 92.7 µM (inactive) | > 100 µM (inactive) | > 100 µM (inactive) |  | > 100 µM (inactive) | > 100 µM (inactive) | > 100 µM (inactive) | > 100 µM (inactive) | > 100 µM (inactive) | > 100 µM (inactive) | > 100 µM (inactive)
3 | O=C(Nc1ccc(N=C=S)cc1Cl)c1cc(Br)cc(Br)c1O | 27 µM (inactive) | 32.8 µM (inactive) | 16.4 | 31.1 µM (inactive) | 25.6 µM (inactive) | 36.7 µM (inactive) | 43.1 µM (inactive) | 27.1 µM (inactive) | 31.3 µM (inactive) | 19.4 µM (inactive) | 23.9 µM (inactive) | 30.4 µM (inactive) |  | 24.2 µM (inactive) | 19 µM (inactive) | 18.9 µM (inactive) | 31.1 µM (inactive) | 27.2 µM (inactive) | < 0.01 µM (active) | 25.8 µM (inactive)
4 | CC(C)C(=O)/C=C/S/C=C/C(=O)C(C)C | 2.24 µM (inactive) |  | 3.2 | 34.9 µM (inactive) | 21.6 µM (inactive) | 3.62 µM (inactive) | 3.56 µM (inactive) | 6.17 µM (inactive) | 1.19 µM (inactive) | 19.5 µM (inactive) | 5.83 µM (inactive) | 4.28 µM (inactive) | 3.31 µM (inactive) | 2.83 µM (inactive) |  | 9.46 µM (inactive) | 45.1 µM (inactive) | 2.94 µM (inactive) | 14.2 µM (inactive) | 32.3 µM (inactive)
5 | CN(C)CCCN1c2ccccc2Sc2ccc3ccccc3c21 | 8.3 µM (inactive) | 1.86 µM (inactive) | 6.43 | 13.2 µM (inactive) | 8.73 µM (inactive) | 8.49 µM (inactive) | 5.13 µM (inactive) | 5.35 µM (inactive) | 7.94 µM (inactive) | 8.67 µM (inactive) | 4.17 µM (inactive) | 2.08 µM (inactive) | 4.91 µM (inactive) | 7.82 µM (inactive) | 3.75 µM (inactive) | 4.61 µM (inactive) |  | 4.56 µM (inactive) | 9.06 µM (inactive) | 13.2 µM (inactive)
6 | S=C1NC2=C(COc3ccccc32)C(c2ccc(Cl)cc2)N1 (stereo not drawn) | 22.9 µM (inactive) | 15.6 µM (inactive) |  | 13.8 µM (inactive) | 21.6 µM (inactive) | 15.3 µM (inactive) |  |  |  | 16.6 µM (inactive) | 15 µM (inactive) | 21.9 µM (inactive) | 16.3 µM (inactive) | 18.9 µM (inactive) | 13.4 µM (inactive) | 17.4 µM (inactive) | 20 µM (inactive) | 18.7 µM (inactive) | 2.54 µM (inactive) | 20.2 µM (inactive)
7 | CSc1nn(C)cc2nc(C)nc1-2 | > 100 µM (inactive) | > 100 µM (inactive) | > 100 | > 100 µM (inactive) | > 100 µM (inactive) | > 100 µM (inactive) | > 100 µM (inactive) |  |  | > 100 µM (inactive) | > 100 µM (inactive) | > 100 µM (inactive) |  | > 100 µM (inactive) | > 100 µM (inactive) | > 100 µM (inactive) | > 100 µM (inactive) | > 100 µM (inactive) | > 100 µM (inactive) | > 100 µM (inactive)
8 | CCCCOC(=O)C(O)Cc1ccoc1 (stereo not drawn) | > 100 µM (inactive) | > 100 µM (inactive) | > 100 | > 100 µM (inactive) | > 100 µM (inactive) | > 100 µM (inactive) |  | > 100 µM (inactive) | > 100 µM (inactive) | > 100 µM (inactive) | > 100 µM (inactive) | > 100 µM (inactive) | > 100 µM (inactive) | > 100 µM (inactive) | > 100 µM (inactive) | > 100 µM (inactive) | > 100 µM (inactive) | > 100 µM (inactive) | > 100 µM (inactive) | > 100 µM (inactive)
9 | O=C1/C(=C/c2ccc([N+](=O)[O-])cc2)Oc2cc(O)ccc21 | 25.4 µM (inactive) | 17.9 µM (inactive) | 25.1 | 37.8 µM (inactive) | 17.1 µM (inactive) | 27.5 µM (inactive) | 23.6 µM (inactive) | 39.6 µM (inactive) | 24.8 µM (inactive) | 29.1 µM (inactive) | 21 µM (inactive) | 41 µM (inactive) |  | 28.8 µM (inactive) | 29.3 µM (inactive) | 33 µM (inactive) | 32.2 µM (inactive) | > 10 µM (inactive) | 26.6 µM (inactive) | 28.8 µM (inactive)
10 | CC(=O)OCC1OC(n2c(C)c(/N=N/c3ccc(Cl)cc3)c(C)c(C#N)c2=S)C(OC(C)=O)C(OC(C)=O)C1OC(C)=O (stereo not drawn) | 58.1 µM (inactive) | > 100 µM (inactive) | > 100 | 25.1 µM (inactive) | 21.5 µM (inactive) | > 100 µM (inactive) | 50.8 µM (inactive) | > 100 µM (inactive) |  | 41.8 µM (inactive) | 64.3 µM (inactive) | > 100 µM (inactive) | 86.3 µM (inactive) | > 100 µM (inactive) | > 100 µM (inactive) | 38.4 µM (inactive) | 20.1 µM (inactive) | > 100 µM (inactive) | > 100 µM (inactive) | 64.4 µM (inactive)
11 | CC(C)=CCNc1ncnc2c1ncn2CCC(=O)O | > 100 µM (inactive) | > 100 µM (inactive) | > 100 | > 100 µM (inactive) | > 100 µM (inactive) | > 100 µM (inactive) |  | > 100 µM (inactive) | > 100 µM (inactive) | > 100 µM (inactive) | > 100 µM (inactive) | > 100 µM (inactive) | > 100 µM (inactive) | > 100 µM (inactive) | > 100 µM (inactive) | > 100 µM (inactive) | > 100 µM (inactive) | > 100 µM (inactive) | > 100 µM (inactive) | > 100 µM (inactive)
12 | CC(O)CCCCC(O)CCC[C@H](O)[C@H]1CCC([C@H]2CCC([C@@H](O)CCCCCCCCCCCCC3=C[C@H](C)OC3=O)O2)O1 (stereo partly drawn) | 10.2 µM (inactive) |  | 14.7 | 9.29 µM (inactive) | 12.3 µM (inactive) | 9.51 µM (inactive) | 9.84 µM (inactive) | 12.6 µM (inactive) | 7.64 µM (inactive) | 10.5 µM (inactive) | 7.93 µM (inactive) | 13.5 µM (inactive) |  | 2.44 µM (inactive) | 10.7 µM (inactive) | 10.9 µM (inactive) | 9.12 µM (inactive) | 11.1 µM (inactive) | 12.2 µM (inactive) | 7.94 µM (inactive)
13 | CC1(c2ccc(F)cc2)CC(c2ccc(F)cc2)=C(C#N)C(=C(C#N)C#N)N1 (stereo not drawn) | 16.6 µM (inactive) | 11 µM (inactive) | 14.8 | 16.9 µM (inactive) | 23.3 µM (inactive) | 5.98 µM (inactive) | 16 µM (inactive) | 13.4 µM (inactive) |  | 17.1 µM (inactive) | 14.1 µM (inactive) | 24 µM (inactive) | 18.6 µM (inactive) | 20.5 µM (inactive) | 16.3 µM (inactive) | 14.3 µM (inactive) | 19.8 µM (inactive) | 5.56 µM (inactive) | 16.7 µM (inactive) | 19.1 µM (inactive)
14 | N#CC1C(=O)SC2c3ccccc3C(=O)c3ccccc3C12 (stereo not drawn) | > 10 µM (inactive) | > 10 µM (inactive) | > 10 | > 10 µM (inactive) | > 10 µM (inactive) | > 10 µM (inactive) | > 10 µM (inactive) | > 10 µM (inactive) |  | > 10 µM (inactive) | > 10 µM (inactive) | > 10 µM (inactive) | > 10 µM (inactive) | > 10 µM (inactive) | > 10 µM (inactive) | > 10 µM (inactive) | 3.26 µM (inactive) | > 10 µM (inactive) | > 10 µM (inactive) | > 10 µM (inactive)
15 | CCNC(=S)NNC(=O)c1ccccc1Nc1ccccc1C(=O)NNC(=S)NCC | > 100 µM (inactive) | > 100 µM (inactive) | > 100 | > 100 µM (inactive) | > 100 µM (inactive) | > 100 µM (inactive) |  | > 100 µM (inactive) | > 100 µM (inactive) | > 100 µM (inactive) | > 100 µM (inactive) | > 100 µM (inactive) | > 100 µM (inactive) | > 100 µM (inactive) | > 100 µM (inactive) | > 100 µM (inactive) | > 100 µM (inactive) | > 100 µM (inactive) | > 100 µM (inactive) | > 100 µM (inactive)
